Results published in US12338256B2, “Aza-tetracyclic oxazepine compounds and uses thereof” (Genentech, Inc., priority 2022, dated 2025).
Where two headings read alike, the source gives them in different places.

Legend:
Type in all cases: cell-based
[1] = tested on: AsPC-1 (homozygous mutant KRAS G12D human pancreatic cell line); experiment: KRAS 3D-Cell Proliferation Assay, AsPC-1 (Example 503); settings: AsPC-1 3D culture, 7 days, CellTiter-Glo 3D, read-out: Prolif AsPC-1 3D ATP IC50
Procedure: Example 503: KRAS 3D-Cell Proliferation Assays. Cellular potencies of compounds are assessed by evaluating inhibition of proliferation in 3D cultures of homozygous mutant KRAS G12D human pancreatic cell lines (AsPC-1 and HPAC) as compared to a KRAS wild type human lung adenocarcinoma cell line (PC-9 and/or H1975). Cells are seeded into 384-well black round-bottom, ultra-low attachment assay plates in 50 uL cell growth medium (RPMI-1640 with 10% fetal bovine serum and 2 mM L-glutamine). After overnight incubation at 37° C. and 5% CO2, compounds solubilized in DMSO are added as dilution series to the wells in a total volume of 150 nL (0.3% DMSO final). The cells are incubated for 7 days at 37° C. and 5% CO2. Cell proliferation is quantitated by addition of 40 uL/well of CellTiter-GloÒ 3D (Promega), and the well contents are mixed 20× at high speed using liquid handling automation workstation (Bravo with 384-well head) and centrifuged at 1500 rpm for 2 minutes to eliminate bubbles. This reagent in combination with mechanical disruption releases the cellular ATP to promote activity in a luciferase-based enzyme/substrate chemiluminescent detection system. After a 30-minute incubation under ambient conditions with shaking and an additional 10 minutes without shaking, the luminescence is read on a plate reader (e.g., EnVision [PerkinElmer]). The results are normalized to percent inhibition based on the following control samples: DMSO (0% inhibition) and 1 μM staurosporine (100% inhibition). The normalized luminescence results are plotted against compound concentration, and the data are fit to a 4-parameter Hill equation to determine the IC50 values.

[2] = tested on: H1975 (KRAS wild type human lung adenocarcinoma cell line); experiment: KRAS 3D-Cell Proliferation Assay, H1975 (Example 503); settings: H1975 3D culture, 7 days, CellTiter-Glo 3D, read-out: Prolif H1975 3D ATP IC50
In short: (§1)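 3D culture, ultra-low attachment wells; RPMI-1640/10% FBS/2 mM L-glutamine. Overnight settle, then compound series, 0.3% DMSO final, 7 d, 37° C, 5% CO2. Readout: CellTiter-Glo 3D luminescence. % inhibition vs DMSO (0%) and 1 μM staurosporine (100%); IC50 via 4-parameter Hill.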

[3] = tested on: HPAC (homozygous mutant KRAS G12D human pancreatic cell line); experiment: KRAS 3D-Cell Proliferation Assay, HPAC (Example 503); settings: HPAC 3D culture, 7 days, CellTiter-Glo 3D, read-out: Prolif HPAC 3D ATP IC50
In short: as §1

SMILES	IC50 ([1]; Homo sapiens, ASPC1, 168 h) [nM]	IC50 ([2]; Homo sapiens, NCI-H1975, 168 h) [nM]	IC50 ([3]; Homo sapiens, HPAC, 168 h) [nM]	other results
Cc1cc(N)c(F)c(-c2nc3c4c(ncnc4c2Cl)N2C[C@H]4CC[C@H](N4)[C@H]2[C@H](C)O3)c1C(F)(F)F (atropisomer, axis not shown) [Compound 95, 3-((5S,5aS,6S,9R)-1-chloro-5-methyl-5a,6,7,8,9,10-hexahydro-5H-4-oxa-3,10a,11,13,14-pentaaza-6,9-methanonaphtho[1,8-ab]heptalen-2-yl)-2-fluoro-5-methyl-4-(trifluoromethyl)aniline]	200	–	–	–
C[C@@H]1Oc2nc(-c3c(Cl)c(N)c(F)c(F)c3C(F)(F)F)c(F)c3nc(OC[C@@]45CCCN4C[C@H](F)C5)nc(c23)N2C[C@H]3CC[C@H](N3)[C@@H]12 (atropisomer, axis not shown; (aS)) [Compound 106, 2-Chloro-5,6-difluoro-3-((5S,5aS,6S,9R)-1-fluoro-12-(((2R,7aS)-2-fluorotetrahydro-1H-pyrrolizin-7a(5H)-yl)methoxy)-5-methyl-5a,6,7,8,9,10-hexahydro-5H-4-oxa-3,10a,11,13,14-pentaaza-6,9-methanonaphtho[1,8-ab]heptalen-2-yl)-4-(trifluoromethyl)aniline]	5.4	770	–	–
Cc1c(F)c(N)cc(-c2nc3c4c(nc(OC[C@]5(CN6CC7(COC7)C6)CC5(F)F)nc4c2F)N2C[C@H]4CC[C@H](N4)[C@H]2[C@H](C)O3)c1C(F)(F)F (mixture of isomers) [165 a]	–	–	–	IC50 [2]: 374 nM; IC50 [3]: 0.63 nM; IC50 [1]: 0.6 nM
Cc1c(F)c(N)cc(-c2nc3c4c(nc(OCC5COCC6CCCN65)nc4c2F)N2CC4CCC(N4)C2C(C)O3)c1C(F)(F)F (single isomer, unassigned) [121 (isomer 2)]	41	–	–	–
Cc1c(F)c(N)cc(-c2nc3c4c(nc(OCC56CCCC5N(C)CCC6)nc4c2F)N2C[C@H]4CC[C@H](N4)[C@H]2[C@H](C)O3)c1C(F)(F)F (single isomer, unassigned) [126 (isomer 1)]	0.6	–	–	–
Cc1c(F)c(N)cc(-c2nc3c4c(nc(OCC56CCCN5CC(F)C6F)nc4c2F)N2C[C@H]4CC[C@H](N4)[C@H]2[C@H](C)O3)c1C(F)(F)F (single isomer, unassigned) [143 (isomer 2)]	4.1	–	–	–
Cc1c(F)c(N)cc(-c2nc3c4c(nc(OC[C@@]56CCCN5C[C@H](F)C6)nc4c2F)N2C[C@H]4CC[C@H](N4)[C@@H]2C(C)O3)c1C(F)(F)F (single isomer, unassigned) [237 (isomer 2)]	200	1040	3.63	–
Cc1c(F)c(N)cc(-c2nc3c4c(nc(OCC56CCN(C)C5COC6)nc4c2F)N2C[C@H]4CC[C@H](N4)[C@H]2[C@H](C)O3)c1C(F)(F)F (single isomer, unassigned) [258 (isomer 1)]	8.1	1560	5	–
Cc1c(F)c(N)cc(-c2nc3c4c(nc(OCC56CCN5CC(F)(F)C6)nc4c2F)N2C[C@H]4CC[C@H](N4)[C@H]2[C@H](C(F)(F)F)O3)c1C(F)(F)F (single isomer, unassigned) [263 (diast. 1)]	7.1	–	–	–
Cc1cc(N)c(F)c(-c2nc3c4c(nc(OCC56CCN5CC(F)(F)C6)nc4c2F)N2C[C@H]4CC[C@H](N4)[C@H]2[C@H](C)O3)c1 (stereo in doubt) [Compound 23, 3-((5S,5aS,6S,9R)-12-((3,3-difluoro-1-azabicyclo[3.2.0]heptan-5-yl)methoxy)-1-fluoro-5-methyl-5a,6,7,8,9,10-hexahydro-5H-4-oxa-3,10a,11,13,14-pentaaza-6,9-methanonaphtho[1,8-ab]heptan-2-yl)-2-fluoro-5-methylaniline]	14000	–	–	IC50 [1]: ≥ 20000 nM
Cc1c(F)c(N)cc(-c2nc3c4c(nc(OC[C@]5(CN6CC7(COC7)C6)CC5(F)F)nc4c2F)N2C[C@H]4CC[C@H](N4)[C@H]2[C@H](C(F)(F)F)O3)c1C(F)(F)F [255 a]	–	–	–	IC50 [1]: 6.6 nM
C#Cc1c(F)ccc2cccc(-c3nc4c5c(nc(OCC67CCN6CC(F)(F)C7)nc5c3F)N3C[C@H]5CC[C@H](N5)[C@H]3[C@H](C)O4)c12 (stereo partly drawn) [Compound 22, (5S,5aS,6S,9R)-12-((3,3-difluoro-1-azabicyclo[3.2.0]heptan-5-yl)methoxy)-2-(8-ethynyl-7-fluoronaphthalen-1-yl)-1-fluoro-5-methyl-5a,6,7,8,9,10-hexahydro-5H-4-oxa-3,10a,11,13,14-pentaaza-6,9-methanonaphtho[1,8-ab]heptalene]	60.3	20000	139	–
Cc1c(F)c(N)cc(-c2nc3c4c(nc(OC[C@@]56CCCN5C[C@H](F)C6)nc4c2F)N2C[C@H]4CC[C@H](N4)[C@H]2CO3)c1C(F)(F)F [Compound 61, 2-Fluoro-5-((5aS,6S,9R)-1-fluoro-12-(((2R,7aS)-2-fluorotetrahydro-1H-pyrrolizin-7a(5H)-yl)methoxy)-5a,6,7,8,9,10-hexahydro-5H-4-oxa-3,10a,11,13,14-pentaaza-6,9-methanonaphtho[1,8-ab]heptalen-2-yl)-3-methyl-4-(trifluoromethyl)aniline]	44.5	2610	21.3	–
Cc1nc(N)cc(-c2nc3c4c(nc(OCC5(CN6CCC7(CCCO7)C6)CC5)nc4c2F)N2C[C@H]4CC[C@H](N4)[C@H]2[C@H](C)O3)c1C(F)(F)F (stereo partly drawn) [Compound 287, 4-((5S,5aS,6S,9R)-12-((1-((1-oxa-7-azaspiro[4.4]nonan-7-yl)methyl)cyclopropyl)methoxy)-1-fluoro-5-methyl-5a,6,7,8,9,10-hexahydro-5H-4-oxa-3,10a,11,13,14-pentaaza[6,9]methanonaphtho[1,8-ab]heptalene-2-yl)-6-methyl-5-(trifluoromethyl)pyridin-2-amine]	–	1380	5.72	–
Cc1nc(N)cc(-c2nc3c4c(nc(OCC5(CN6CCC(F)(F)C6)CC5)nc4c2F)N2C[C@H]4CC[C@H](N4)[C@H]2[C@H](C)O3)c1C(F)(F)F [Compound 288, 4-((5S,5aS,6S,9R)-12-((1-((3,3-difluoropyrrolidin-1-yl)methyl)cyclopropyl)methoxy)-1-fluoro-5-methyl-5a,6,7,8,9,10-hexahydro-5H-4-oxa-3,10a,11,13,14-pentaaza-6,9-methanonaphtho[1,8-ab]heptalene-2-yl)-6-methyl-5-(trifluoromethyl)pyridin-2-amine]	–	9810	18.8	–
Cc1nc(N)cc(-c2nc3c4c(nc(OCC5(CN6CC(C)(F)C6)CC5)nc4c2F)N2C[C@H]4CC[C@H](N4)[C@H]2[C@H](C)O3)c1C(F)(F)F [Compound 289, 4-((5S,5aS,6S,9R)-1-fluoro-12-((1-((3-fluoro-3-methylazetidin-1-yl)methyl)cyclopropyl)methoxy)-5-methyl-5a,6,7,8,9,10-hexahydro-5H-4-oxa-3,10a,11,13,14-pentaaza-6,9-methanonaphtho[1,8-ab]heptalene-2-yl)-6-methyl-5-(trifluoromethyl)pyridin-2-amine]	–	573	3.15	–
CO[C@@H]1CN(CC2(COc3nc4c5c(nc(-c6cc(N)nc(C)c6C(F)(F)F)c(F)c5n3)O[C@@H](C)[C@@H]3[C@@H]5CC[C@H](CN43)N5)CC2)C[C@@H]1F [Compound 290, 4-((5S,5aS,6S,9R)-1-fluoro-12-((1-(((3S,4R)-3-fluoro-4-methoxypyrrolidin-1-yl)methyl)cyclopropyl)methoxy)-5-methyl-5a,6,7,8,9,10-hexahydro-5H-4-oxa-3,10a,11,13,14-pentaaza-6,9-methanonaphtho[1,8-ab]heptalen-2-yl)-6-methyl-5-(trifluoromethyl)pyridin-2-amine]	–	2780	2.53	–
CO[C@H]1CN(CC2(COc3nc4c5c(nc(-c6cc(N)nc(C)c6C(F)(F)F)c(F)c5n3)O[C@@H](C)[C@@H]3[C@@H]5CC[C@H](CN43)N5)CC2)C[C@@H]1F [Compound 291, 4-((5S,5aS,6S,9R)-1-fluoro-12-((1-(((3S,4S)-3-fluoro-4-methoxypyrrolidin-1-yl)methyl)cyclopropyl)methoxy)-5-methyl-5a,6,7,8,9,10-hexahydro-5H-4-oxa-3,10a,11,13,14-pentaaza-6,9-methanonaphtho[1,8-ab]heptalen-2-yl)-6-methyl-5-(trifluoromethyl)pyridin-2-amine]	–	12200	4.09	–
